“And” between values parts separate entries of the source, which are not always exact repeats. Equal entries are not always repeated.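 Results reflect a 48-hour exposure of cells in 96-well plates to compound at five concentrations. Abbreviation: GI50, concentration required for 50% inhibition of growth. TGI: total growth inhibition.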
Experiments:
Assay in all cases: NCI anticancer screen, dose series, 48 h
T-47D breast = test system: T-47D breast
SW-620 colon = test system: SW-620 colon
A498 renal = test system: A498 renal
NCI-H522 lung = test system: NCI-H522 lung
M14 melanoma = test system: M14 melanoma
MDA-MB-435 = test system: MDA-MB-435
HOP-92 NSCLC = test system: HOP-92 NSCLC
SF-295 CNS = test system: SF-295 CNS
SK-MEL-2 melanoma = test system: SK-MEL-2 melanoma
SK-MEL-28 melanoma = test system: SK-MEL-28 melanoma

Row | SMILES | GI50 (T-47D breast) | TGI (T-47D breast) | GI50 (SW-620 colon) | TGI (SW-620 colon) | GI50 (A498 renal) | TGI (A498 renal) | GI50 (NCI-H522 lung) | TGI (NCI-H522 lung) | GI50 (M14 melanoma) | TGI (M14 melanoma) | GI50 (MDA-MB-435) | TGI (MDA-MB-435) | GI50 (HOP-92 NSCLC) | TGI (HOP-92 NSCLC) | GI50 (SF-295 CNS) | TGI (SF-295 CNS) | GI50 (SK-MEL-2 melanoma) | TGI (SK-MEL-2 melanoma) | GI50 (SK-MEL-28 melanoma) | TGI (SK-MEL-28 melanoma)
1 | Cc1ccc(C2C3Cc4ccccc4C3=NN2c2ccc(S(=O)(=O)NC(=O)Nc3ccccc3)cc2)cc1 (stereo unspecified) | 36.8 µM | > 100 µM | 13.1 µM | 26 µM | 15.6 µM | 30.7 µM | 10.6 µM | 28.7 µM | 17 µM | 40.3 µM | 18.7 µM | 46.2 µM | 14.3 µM | 28.2 µM | 12.8 µM | 33.6 µM | 14.2 µM | 31.5 µM | 22.6 µM | 52.5 µM
2 | O=c1[nH]c(=O)n(C2OC(CO)C(O)C2O)cc1F (stereo unspecified) |  | > 100 µM | 0.0314 µM | > 100 µM | 0.0876 µM | 5.61 µM | 0.349 µM | 30.6 µM | 0.0819 µM | > 75.8 µM | 0.0445 µM | > 77.9 µM | 24.9 µM | > 100 µM |  | > 100 µM |  | > 84.6 µM | 0.0471 µM | > 100 µM
3 | CCSCCCC(=O)O |  | > 100 µM |  | > 100 µM |  | > 100 µM |  | > 100 µM |  | > 100 µM |  | > 100 µM |  |  |  | > 100 µM |  | > 100 µM |  | > 100 µM
4 | COc1ccc2c(c1)C(=O)c1c-2n(CCCCl)c(=O)c2cc(N)ccc12 | > 100 µM | > 100 µM | > 68.1 µM | > 100 µM | > 100 µM | > 100 µM | > 84.4 µM | > 100 µM | > 100 µM | > 100 µM | > 100 µM | > 100 µM | 21.2 µM | > 100 µM | > 64.6 µM | > 100 µM | > 100 µM | > 100 µM | > 100 µM | > 100 µM
5 | Nc1ncnc2c1ncn2CCCCC(=O)O |  | > 100 µM |  | > 100 µM |  | > 100 µM |  | > 100 µM |  | > 100 µM |  | > 100 µM |  | > 100 µM |  | > 100 µM |  | > 100 µM |  | > 100 µM
6 | Cc1ccc(NC(=O)CCC(=O)C2Cc3ccccc3C2=O)cc1C (stereo unspecified) |  |  |  | > 100 µM |  | > 100 µM |  | > 100 µM |  | > 100 µM |  |  |  | > 100 µM |  | > 100 µM |  | > 100 µM |  | > 100 µM
7 | Cc1cc(OCc2nn(CN3CCN(C)CC3)c(=S)n2/N=C/c2ccc(F)cc2)ccc1Cl | 17 µM | 39.7 µM | 18.7 µM | 35.7 µM | 16.8 µM | 31.3 µM | 15.7 µM | 30.8 µM | 17.9 µM | 33.1 µM | 18 µM | 36.2 µM | 17.8 µM | 37.6 µM | 17.9 µM | 36.6 µM | 18.5 µM | 37.6 µM | 15.2 µM | 31.5 µM
8 | C1=C\CCCCN2CC[C@H]3[C@H](CCCC/C=C\CCCN4C[C@@H](CCCCC/1)C[C@@H]3C4)C2 | 10 µM | 27.4 µM | 6.96 µM | 19.4 µM | 6.31 µM | 21.4 µM | 12.6 µM | 28.5 µM | 1.77 µM | 3.44 µM | 1.73 µM | 3.26 µM | 4.04 µM | 20.1 µM | 5.3 µM | 12.1 µM | 10.4 µM | 26.3 µM | 1.82 µM | 3.35 µM
9 | COc1cc(/C=C/c2ccnc3ccccc23)cc(OC)c1OC | 6.58 µM | 80.4 µM and > 100 µM | 0.906 µM | > 100 µM and 20 µM | 1.6 µM | 8.91 µM and 5.87 µM |  | 46.8 µM and 7.39 µM | 2.43 µM | 91 µM and 13.8 µM | 0.355 µM | 1.87 µM and 1.85 µM | 2.07 µM | 9.08 µM | 3.12 µM | > 100 µM and 53 µM |  | > 100 µM | 4.06 µM | 37.2 µM and > 100 µM
10 | CCc1cccc(NC(=O)c2cc(/C=C/c3ccccc3)[nH]c(=S)n2)c1 |  |  |  | > 100 µM |  | > 100 µM |  | > 100 µM |  | > 100 µM |  |  |  | > 100 µM |  | > 100 µM |  | > 100 µM |  | > 100 µM
11 | CC[P+]1(c2ccccc2)CCCCC1 |  |  |  | > 100 µM |  |  |  |  |  | > 100 µM |  |  |  | > 100 µM |  | > 100 µM |  | > 100 µM |  | > 100 µM
12 | CCCCNCCCCCNc1cc(OC)cc2cccnc12 |  |  | 19.2 µM | 39.4 µM | 16.2 µM | 38 µM | 17.5 µM | 33.8 µM | 14.9 µM | 28.5 µM | 19.8 µM | 41.4 µM | 2.77 µM | 23 µM | 28.4 µM | 84.9 µM | 19.6 µM | 37.5 µM |  | 
13 | C=C1C(C(=O)O)C1C(=O)O (stereo unspecified) |  |  |  | > 100 µM |  | > 100 µM |  | > 100 µM |  | > 100 µM |  |  |  | > 100 µM |  | > 100 µM |  | > 100 µM |  | > 100 µM
14 | CC(C)(C)OC1=C(OC(C)(C)C)C(O)(c2ccc(Cl)cc2)C1=O (stereo unspecified) |  |  |  | > 100 µM |  | > 100 µM |  |  |  | > 100 µM |  |  |  |  |  | > 100 µM |  |  |  | > 100 µM
15 | CCOP(=O)(OCC)C(NC(c1ccccc1)c1ccccc1)c1ccc(C(C)C)cc1 (stereo unspecified) | 6.65 µM | 41.3 µM | 4.08 µM | 20.3 µM |  |  | 6.98 µM | 29.6 µM | 2.13 µM | 4.99 µM | 3.71 µM | 11.6 µM | 1.97 µM | 11 µM | 2.92 µM | 11.7 µM | 19.2 µM | 72.7 µM | 11.9 µM | 52 µM
16 | CCc1ccccc1NC(=O)C(=O)C(C#N)c1c(Cl)cccc1Cl (stereo unspecified) |  |  |  | > 100 µM |  |  |  | > 100 µM |  | > 100 µM |  |  |  | > 100 µM |  | > 100 µM |  | > 100 µM |  | > 100 µM
17 | COc1cc(NCCC2CCCCN2)c2ncccc2c1OC (stereo unspecified) | 2.91 µM | 14.4 µM | 5.5 µM | 21.2 µM | 22.6 µM | 41.8 µM | 2.41 µM | 9.05 µM | 16.5 µM | 36.3 µM |  |  |  |  | 10.4 µM | 31 µM | 3.13 µM | 9.07 µM | 11.7 µM | 24.8 µM

Source: PubChem BioAssay (NCI)
